Test results reported in ChEMBL document CHEMBL3817747 (J Med Chem, 2016).

Target: Neuraminidase (Influenza A virus, UniProt B4URF0)
Format: cell-based, Influenza A virus (A/WSN/1933(H1N1)), HEK293

Sequence of Neuraminidase (B4URF0 whole entry): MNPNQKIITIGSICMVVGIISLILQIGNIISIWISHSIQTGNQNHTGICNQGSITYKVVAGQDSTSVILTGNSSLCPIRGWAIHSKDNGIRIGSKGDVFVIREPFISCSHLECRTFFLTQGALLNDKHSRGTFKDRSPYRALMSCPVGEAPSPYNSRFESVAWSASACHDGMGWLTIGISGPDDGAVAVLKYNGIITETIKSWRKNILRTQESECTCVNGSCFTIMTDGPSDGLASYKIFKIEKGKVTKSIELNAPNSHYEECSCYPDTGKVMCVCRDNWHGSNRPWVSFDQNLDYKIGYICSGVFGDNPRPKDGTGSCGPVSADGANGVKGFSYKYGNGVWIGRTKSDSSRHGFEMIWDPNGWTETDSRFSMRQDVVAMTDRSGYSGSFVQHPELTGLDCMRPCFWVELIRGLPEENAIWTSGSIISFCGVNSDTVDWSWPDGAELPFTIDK

Structure (SMILES)	IC50
CCCCCCOP(=O)(O)C1=C[C@@H]([C@@H](NC(C)=O)C(CC)CC)[C@H](NC(=N)N)C1	1.5 nM
CCOP(=O)(O)[C@@H]1C[C@@H]([C@@H](NC(C)=O)C(CC)CC)[C@H](NC(=N)N)C1	1 nM
CCOP(=O)(O)[C@H]1C[C@@H](NC(=N)N)[C@H]([C@@H](NC(C)=O)C(CC)CC)[C@@H]1O	0.9 nM
CCCCCCOP(=O)(O)[C@H]1C[C@@H](NC(=N)N)[C@H]([C@@H](NC(C)=O)C(CC)CC)[C@@H]1O	0.5 nM
CCCCCCOP(=O)(O)[C@@H]1C[C@@H]([C@@H](NC(C)=O)C(CC)CC)[C@H](NC(=N)N)C1	1.6 nM
CCC(CC)[C@H](NC(C)=O)[C@@H]1C[C@@H](P(=O)(O)O)C[C@H]1NC(=N)N	2.9 nM
